Laboratory results taken from patent US10730866B2, “Indole derivatives and use thereof” (Purdue Pharma L.P., priority 2014, dated 2020).

What was measured:
[1] = biological target: hNav1.7 (Homo sapiens (Human), UniProt Q15858); test: Electrophysiology (EP) assay, whole-cell patch clamp; type: cell-based; details: hNav1.7 expressing HEK-293 cells; affinity for inactivated state; read-out: Nav1.7 Activity (μM) EP assay Ki
Method: The hNav1.7 expressing HEK-293 cells are plated on 35 mm culture dishes pre-coated with poly-D-lysine in standard DMEM culture media (Mediatech, Inc., Herndon, Va.) and incubated in a 5% CO2 incubator at 37° C. Cultured cells are used approximately 12-48 hours after plating.
The hNav1.7 expressing HEK-293 cells are plated on tissue culture flasks in standard DMEM culture media (Mediatech, Inc.) and incubated in a 5% CO2 incubator at 37° C. Cultured cells are used approximately 12-48 hours after plating.
On the day of experimentation, the 35 mm dish is placed on the stage of an inverted microscope equipped with a perfusion system that continuously perfuses the culture dish with fresh recording media. A gravity driven superfusion system is used to apply test solutions directly to the cell under evaluation. This “shooter” system consists of an array of glass pipettes connected to a motorized horizontal translator. The outlet of the shooter is positioned approximately 100 μm from the cell of interest.
Whole cell currents are recorded using the whole-cell patch clamp configuration using an Axopatch 200B amplifier (Axon Instruments, Foster City Calif.), 1322A A/D converter (Axon Instruments) and pClamp software (v. 8; Axon Instruments) and stored on a personal computer. Gigaseals are formed and the whole-cell configuration is established in voltage clamp mode, and membrane currents generated by hNav1.7 channels are recorded. Borosilicate glass pipettes with resistance values between 1.5 and 2.0 MΩ when filled with pipette solution are used and series resistance (<5 MΩ) is compensated by 75-80%. Signals are sampled at 50 kHz and low pass filtered at 3 kHz.
Whole cell currents are recorded using the whole-cell patch clamp configuration using an Patchliner (Nanion Technologies, Munich Germany), EPC 10 quadro amplifiers (HEKA, Bellmore, N.Y.) and PatchControl HT 10905 (Nanion Technologies) and PatchMaster v2x73 software (HEKA) and stored on a personal computer. Gigaseals are formed and the whole-cell configuration is established in voltage clamp mode, and membrane currents generated by hNav1.7 are recorded. NPC-16 chips have resistance values between 1.0 and 2.0 MΩ when filled with pipette solution and series resistance (<5 MΩ). Signals are sampled at 25 kHz and low pass filtered at 3 kHz.
After establishing the whole-cell configuration in voltage clamp mode, voltage protocols are run to establish the 1) test potential (Vmax), 2) holding potential (Vh), and 3) the conditioning potential for each cell.
After establishing the whole-cell configuration in voltage clamp mode, a standard I-V protocol is run to determine the potential at which the maximal current (Imax) is elicited. This potential is the test potential (Vt). To determine a conditioning potential at which 100% of channels are in the inactivated state, a standard steady-state inactivation (SSIN) protocol is run using a series of fifteen 100 ms-long depolarizing prepulses, incrementing in 10 mV steps, immediately followed by a 5 ms testing pulse to Vmax. This protocol also permits determination of the holding potential at which all channels are in the resting state.
For compounds causing significant retardation of recovery from inactivation, an estimate of the affinity for the inactivated state of the channel (Ki) is generated using the following protocol. From the negative, no residual inactivation, holding potential, the cell is depolarized to the conditioning voltage for 2-5 seconds, returned to the negative holding potential for 10-20 ms to relieve fast inactivation and then depolarized to the test potential for ˜15 ms. This voltage protocol is repeated every 10-15 seconds, first to establish a baseline in the absence of the test compound, then in the presence of the test compound.
After a stable baseline is established, the test compound is applied and block of the current elicited by the test pulse assessed. […]

[2] = biological target: human Nav1.7 (Homo sapiens (Human), UniProt Q15858); test: FLIPR or FLIPR TETRA sodium dye assay for sodium channel blocking activity; type: cell-based; details: recombinant HEK293 cells expressing human Nav1.7
Sequence of human Nav1.7 (Q15858 other isoform, or with tags, fused parts or gaps): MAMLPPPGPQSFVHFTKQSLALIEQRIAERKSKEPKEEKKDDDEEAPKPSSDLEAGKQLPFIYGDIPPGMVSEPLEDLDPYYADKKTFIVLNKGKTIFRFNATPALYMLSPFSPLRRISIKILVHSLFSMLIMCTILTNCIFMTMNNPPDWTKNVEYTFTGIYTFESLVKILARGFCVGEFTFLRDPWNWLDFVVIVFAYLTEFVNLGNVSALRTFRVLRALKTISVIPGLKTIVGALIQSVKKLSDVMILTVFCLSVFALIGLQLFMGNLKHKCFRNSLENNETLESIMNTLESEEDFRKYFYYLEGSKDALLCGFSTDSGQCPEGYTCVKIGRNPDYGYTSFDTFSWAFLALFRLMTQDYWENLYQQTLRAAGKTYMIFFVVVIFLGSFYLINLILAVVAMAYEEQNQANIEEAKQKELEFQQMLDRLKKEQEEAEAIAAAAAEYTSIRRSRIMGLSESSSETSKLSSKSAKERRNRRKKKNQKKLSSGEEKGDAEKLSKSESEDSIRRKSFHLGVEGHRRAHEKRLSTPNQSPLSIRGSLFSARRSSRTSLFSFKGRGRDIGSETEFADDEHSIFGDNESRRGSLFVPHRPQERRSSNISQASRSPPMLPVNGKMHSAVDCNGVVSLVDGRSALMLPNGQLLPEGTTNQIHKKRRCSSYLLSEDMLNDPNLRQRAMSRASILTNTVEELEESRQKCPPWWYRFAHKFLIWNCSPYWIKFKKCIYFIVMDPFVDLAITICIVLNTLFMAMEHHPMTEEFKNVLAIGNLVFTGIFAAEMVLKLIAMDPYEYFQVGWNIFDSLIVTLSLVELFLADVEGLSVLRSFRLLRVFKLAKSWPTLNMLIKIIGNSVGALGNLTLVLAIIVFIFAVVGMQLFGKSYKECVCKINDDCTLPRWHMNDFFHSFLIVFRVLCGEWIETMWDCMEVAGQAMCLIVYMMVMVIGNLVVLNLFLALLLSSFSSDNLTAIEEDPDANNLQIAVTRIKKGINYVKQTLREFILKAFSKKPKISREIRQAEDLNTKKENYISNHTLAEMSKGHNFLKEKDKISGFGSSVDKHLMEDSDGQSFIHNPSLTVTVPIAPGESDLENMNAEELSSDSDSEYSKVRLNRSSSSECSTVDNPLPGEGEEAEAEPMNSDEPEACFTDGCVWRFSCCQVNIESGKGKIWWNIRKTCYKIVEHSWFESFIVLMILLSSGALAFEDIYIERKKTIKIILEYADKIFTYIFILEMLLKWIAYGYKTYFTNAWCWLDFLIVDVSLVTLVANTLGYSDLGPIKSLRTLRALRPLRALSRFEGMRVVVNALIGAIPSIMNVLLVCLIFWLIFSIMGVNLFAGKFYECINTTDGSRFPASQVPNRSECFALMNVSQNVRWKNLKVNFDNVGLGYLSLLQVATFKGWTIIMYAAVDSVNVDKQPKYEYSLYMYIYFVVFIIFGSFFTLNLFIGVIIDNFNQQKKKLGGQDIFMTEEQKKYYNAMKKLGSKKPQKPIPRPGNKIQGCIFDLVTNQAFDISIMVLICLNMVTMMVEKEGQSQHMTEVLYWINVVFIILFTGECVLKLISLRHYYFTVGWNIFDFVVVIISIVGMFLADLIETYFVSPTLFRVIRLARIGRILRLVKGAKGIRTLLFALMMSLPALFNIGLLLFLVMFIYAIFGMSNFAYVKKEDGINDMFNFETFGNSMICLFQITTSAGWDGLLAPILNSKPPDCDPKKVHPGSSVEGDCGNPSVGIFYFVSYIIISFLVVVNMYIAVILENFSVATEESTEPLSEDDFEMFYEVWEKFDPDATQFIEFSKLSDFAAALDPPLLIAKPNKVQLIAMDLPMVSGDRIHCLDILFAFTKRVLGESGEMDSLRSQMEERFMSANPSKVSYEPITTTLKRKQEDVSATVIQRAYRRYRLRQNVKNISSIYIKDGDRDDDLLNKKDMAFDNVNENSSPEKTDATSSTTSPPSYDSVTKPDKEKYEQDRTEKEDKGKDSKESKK
Method: In vitro assays were performed in a recombinant cell line expressing cDNA encoding the alpha subunit (Nav1.7, SCN9a, PN1, NE) of human Nav1.7 (Accession No. NM_002977). The cell line was provided by investigators at Yale University (Cummins et al, J. Neurosci. 18(23): 9607-9619 (1998)). For dominant selection of the Nav1.7-expressing clones, the expression plasmid co-expressed the neomycin resistance gene. The cell line was constructed in the human embryonic kidney cell line, HEK293, under the influence of the CMV […] promoter, and stable clones were selected using limiting dilution cloning and antibiotic selection using the neomycin analogue, G418. Recombinant beta and gamma subunits were not introduced into this cell line. Additional cell lines expressing recombinant Nav1.7 cloned from other species can also be used, alone or in combination with various beta subunits, gamma subunits or chaperones.
Unless otherwise noted, cell culture reagents were purchased from Mediatech of Herndon, Va. The recombinant Nav1.7/HEK293 cells were routinely cultured in growth medium consisting of Dulbecco's […] essential medium containing 10% fetal bovine serum (FBS, Hyclone, Thermo Fisher Scientific, Logan, Utah), 100 U/mL penicillin, 100 μg/mL streptomycin, 2-4 mM L-glutamine, and […] G418. For natural, non-recombinant cell lines, the selective antibiotic was omitted, and additional media formulations can be applied as needed.
The final buffer consisted of 20 mM Hepes, pH 7.3, 1.261 mM CaCl2, 0.493 mM MgCl2, 0.407 mM Mg(SO)4, 5.33 mM KCl, 0.441 mM KH2PO4, 137 mM NaCl, 0.336 mM Na2HPO4 and […] D-glucose (Hanks et al., Proc. Soc. Exp. Biol. Med. 71:196 (1949)), and the simple formulation was typically the basic buffer throughout the assay (i.e., all wash and addition steps).
The fluorescence indicator used in the primary fluorescence assay was the cell permeant version of CoroNa™ Green (Invitrogen, Molecular Probes, Eugene, Oreg.), a dye that emits light in the fluorescence range (Harootunian et al., J. Biol. Chem. 264(32):19458-19467 (1989)). The intensity of this emission, but not the wavelength range, is increased when the dye is exposed to Na^+ ions, which it can bind with partial selectivity. Cells expressing Nav1.7 or other sodium channels were loaded with the CoroNa™ Green dye immediately in advance of the fluorescence assay, and then, after agonist stimulation, the mobilization of Na^+ ions was detected as the Na^+ ions flowed from the extracellular fluid into the cytoplasm through the activated sodium channel pores. The dye was stored in the dark as a lyophilized powder, and then an aliquot was dissolved immediately before the cell loading procedure, according to the instructions of the manufacturer, to a stock concentration of 10 mM in DMSO. It was then diluted in the assay buffer to a 4× concentrated working solution, so that the final concentration of dye in the cell loading buffer was 5 μM.
In the fluorescence assays, two agonists were used in combination, namely 1) veratridine; and 2) the venom from the yellow scorpion, Leiurus quinquestriatus hebraeus. Veratridine is an alkaloid small molecule that facilitates the capture of channel openings by inhibiting inactivation, and the scorpion venom is a natural preparation that includes peptide toxins selective for different subsets of voltage-gated sodium channels. These scorpion toxins inhibit the fast inactivation of their cognate target channels. Stock solutions of the agonists were prepared to 40 mM in DMSO (veratridine) and 1 mg/mL in dH2O (scorpion venom), and then diluted to make a 4× or 2× stock (depending on the particular assay) in assay buffer, the final concentration being 100 μM (veratridine) and 10 μg/mL (scorpion venom). Both of the agonists were purchased from Sigma Aldrich, St. Louis, Mo.
Test compounds were dissolved in DMSO to yield 10 mM stock solutions. […]

Sequence of hNav1.7 (Q15858 other isoform, or with tags, fused parts or gaps): as above

Row | Structure (SMILES) | Ki [1] [µM] | IC50 [2] [µM]
1 | CC(C)Cn1ccc2cc(-c3cccc(S(=O)(=O)Nc4ncns4)n3)ccc21 [Compound 41, 6-(1-isobutyl-1H-indol-5-yl)-N-(1,2,4-thiadiazol-5-yl)pyridine-2-sulfonamide] | 0.322 ± 0.113 | 0.514 ± 0.054
2 | NC(=O)c1cc(N[C@H]2CCNC2=O)nc(-c2ccc3ncn(-c4ccc(C(F)(F)F)cc4)c3c2)n1 [Compound 44, (S)-6-((2-oxopyrrolidin-3-yl)amino)-2-(1-(4-(trifluoromethyl)phenyl)-1H-benzo[d]imidazol-6-yl)pyrimidine-4-carboxamide] | 1.54 ± 0.446 | 1.72 ± 0.156
3 | O=C(Nc1ccc(C(F)(F)F)cc1)c1cc(N[C@H]2CCNC2=O)nc(-c2ccc3[nH]ccc3c2)n1 [Compound 78, (S)-2-(1H-indol-5-yl)-6-((2-oxopyrrolidin-3-yl)amino)-N-(4-(trifluoromethyl)phenyl)pyrimidine-4-carboxamide] | 1.28 ± 0.48 | 1.83 ± 0.459
4 | NC(=O)c1cccc(-c2ccc3c(cnn3Cc3ccc(C(F)(F)F)cc3)c2)n1 [Compound 105, 6-(1-(4-(trifluoromethyl)benzyl)-1H-indazol-5-yl)picolinamide] | 0.7 ± 0.049 | 0.897 ± 0.114
5 | OC[C@@H](O)c1cccc(-c2cnc3c(ccn3Cc3ccc(C(F)(F)F)cc3)c2)n1 [Compound 106, (S)-1-(6-(1-(4-(trifluoromethyl)benzyl)-1H-pyrrolo[2,3-b]pyridin-5-yl)pyridin-2-yl)ethane-1,2-diol] | 0.286 ± 0.027 | 1.33 ± 0.164
6 | OC[C@@H](O)c1cccc(-c2ccc3c(cnn3Cc3ccc(C(F)(F)F)cc3)c2)n1 [Compound 107, (S)-1-(6-(1-(4-(trifluoromethyl)benzyl)-1H-indazol-5-yl)pyridin-2-yl)ethane-1,2-diol] | 0.534 ± 0.032 | 1.09 ± 0.077
7 | NC(=O)c1cc([C@@H](O)CO)cc(-c2ccc3c(ccn3Cc3ccc(C(F)(F)F)cc3)c2)n1 [Compound 120, (R)-4-(1,2-dihydroxyethyl)-6-(1-(4-(trifluoromethyl)benzyl)-1H-indol-5-yl)picolinamide] | 2.03 ± 0.608 | 1.91 ± 0.458
8 | NC(=O)c1cc(-c2ccc3c(ccn3Cc3ccc(C(F)(F)F)cc3)c2)cc([C@H](O)CO)n1 [Compound 123, (S)-6-(1,2-dihydroxyethyl)-4-(1-(4-(trifluoromethyl)benzyl)-1H-indol-5-yl)picolinamide] | 1.02 ± 0.368 | 1.52 ± 0.152
9 | CC(C)Cn1ccc2cc(-c3cccc([C@H](O)[C@@H](O)C(N)=O)n3)ccc21 [Compound 150, (2R,3S)-2,3-dihydroxy-3-(6-(1-isobutyl-1H-indol-5-yl)pyridin-2-yl)propanamide] | 0.678 ± 0.172 | 1.38 ± 0.146
10 | NC(=O)[C@H](O)[C@@H](O)c1cccc(-c2ccc3c(ccn3CC3CC3)c2)n1 [Compound 154, (2R,3S)-3-(6-(1-(cyclopropylmethyl)-1H-indol-5-yl)pyridin-2-yl)-2,3-dihydroxypropanamide] | 27.2 ± 8.2 | 10 to 20
11 | CC(C)Cn1ncc2cc(-c3cccc([C@H](O)[C@@H](O)C(N)=O)n3)ccc21 [Compound 155, (2R,3S)-2,3-dihydroxy-3-(6-(1-isobutyl-1H-indazol-5-yl)pyridin-2-yl)propanamide] | 10.6 ± 3.9 | > 20
12 | NC(=O)c1csc(-c2ccc3c(ccn3Cc3ccc(C(F)(F)F)cc3)c2)n1 [Compound 156, 2-(1-(4-(trifluoromethyl)benzyl)-1H-indol-5-yl)thiazole-4-carboxamide] | – | 0.173 ± 0.018
